Reference: PMC9131871, “Impact of Micropolymorphism Outside the Peptide Binding Groove in the Clinically Relevant Allele HLA-C*14 on T Cell Responses in HIV-1 Infection” (Journal of Virology, 2022)

Experiments:
[1] = tested on: PBMCs from HIV-1-infected HLA-C*14:02+ or HLA-C*14:03+ individuals; test: ex vivo IFN-γ ELISPOT assay; type: cell-based, human; conditions: for Responder (number), 1402+: 30 HLA-C*14:02+ treatment-naive individuals; for Responder (number), 1402+ / Responder (number), 1403+: positive >100 spots/10^6 PBMCs; for Responder (number), 1403+: 30 HLA-C*14:03+ treatment-naive individuals; for frequency of individuals showing responses of >100 spot-forming cells/10^6 PBMCs: 60 HLA-C*14:02/C*14:03 treatment-naive individuals (30 + 30)
HLA-C*14:02 = HLA-C*14:02 (Homo sapiens, UniProt P10321, A176E/A330V/A35S/A97T/C350S/D114A/D33S/L171W/L180R/L218V/M285V/M309V/M331V/P208H/Q277E/Q291P/R121W/R243W/S123F/S297R/S48A/T329A/T363A/V319A); test: HLA stabilization assay on RMA-S-C1402 cells; type: cell-based; conditions: for relative affinity in hierarchy of peptide-HLA-C*14 binding (HLA-C*14:02): peptide concentrations from 0.1 to 100 μM, 6 epitope peptides compared; for binding to HLA-C*14:02 (stabilization of surface HLA expression): 100 μM peptide, 26°C 1 h then 37°C 3 h, MAb DT-9 staining, flow cytometry, triplicate assays
Text: We next sought to confirm the HLA-C*14:02/C*14:03 restriction of the HIV-1 peptides identified by LC-MS/MS. First, we tested their ability to bind to HLA-C*14:02 or HLA-C*14:03 using HLA stabilization assays. Of the 25 HIV-1 peptides, three Env peptides, Env SI8, Env AM11, and Env VM9, are located in variable regions V2 and V3. In addition, Pol AF10, Pol PF8, Pol VWL9, and Env YI9 are located in regions where high sequence variation is reported in the LANL database. Therefore, we excluded these peptides from further analysis. The other 18 peptides were synthesized and tested for binding to HLA-C*14:02/C*14:03 by analyzing their ability to stabilize surface HLA expression on TAP-defective RMA-S cell lines expressing HLA-C*14:02 (RMA-S-C1402) or HLA-C*14:03 (RMA-S-C1403). These RMA-S cell lines express equivalent levels of HLA-C*14:02 and HLA-C*14:03 on the cell surface at 26°C, and surface HLA expression declines to very low levels when the cells are warmed to 37°C in the absence of exogenously added stabilizing peptides (Fig. 2A). Peptide binding was determined by evaluating whether HLA-I expression was stabilized in the presence of 100 μM peptide.
FIG 2 HLA-C*14:02/14:03 binding of HIV-1 peptides eluted from NL4-3-infected .221-C1402 and .221-C1403 cells as assessed by HLA stabilization assay using RMA-S cell lines. (A) Histogram plots showing surface expression of HLA-C*14:02 or HLA-C*14:03 on RMA-S-C1402 or RMA-S-C1403 cells at 26°C and after cells cultured at 26°C had been warmed to 37°C for 3 h. MFI values of cells cultured at 26°C were 27.4 for HLA-C*14:02 and 28.1 for HLA-C*14:03. MFI values of cells cultured at 37°C for 3 h were 5.0 for HLA-C*14:02 and 6.54 for HLA-C*14:03. (B) Analysis of binding of 14 HIV-1 NL4.3 peptides identified by LC-MS/MS to HLA-C*14:02 (blue) or HLA-C*14:03 (red) as measured in HLA class I stabilization assays using RMA-S-C1402 or RMA-S-C1403 cells. (C) Analysis of binding of 9 additional variant peptides to HLA-C*14:02 (blue) or C*14:03 (red). For panels B and C, peptides were tested at a concentration of 100 μM. Results are plotted as percent surface HLA-I expression relative to that at 26°C, calculated as the ratio of the MFI of peptide-pulsed RMA-S-C1402 or RMA-S-C1403 cells to that of control (non-peptide-pulsed) cells kept at 26°C, multiplied by 100. Means and standard deviations (SDs) from triplicate assays are shown. Statistical analyses were performed by unpaired t test. The P values were corrected for multiple testing. *, P < 0.05 and q < 0.05; **, P < 0.01 and q < 0.03; ***, P < 0.001 and q < 0.005.
The relative affinity of peptide binding to HLA-C*14:02 and -C*14:03 was examined using RMA-S-C1402 and RMA-S-C1403 cells as previously described ([15]). Briefly, RMA-S cells were cultured at 26°C for 16 h, pulsed with peptides at 26°C for 1 h, and subsequently incubated at 37°C for 3 h. Staining of cell surface HLA-C molecules was performed with the HLA-C-reactive monoclonal antibody (MAb) DT-9 ([48]), a gift from Mary Carrington, NIH, and fluorescein isothiocyanate (FITC)-conjugated sheep anti-mouse IgG (Jackson ImmunoResearch). Staining data were acquired on a FACSCanto II instrument (BD Biosciences) and analyzed using FlowJo 10.7.1 software. Relative HLA expression was calculated as the ratio of the mean fluorescence intensity (MFI) of peptide-pulsed RMA-S-C1402 cells or RMA-S-C1403 cells to that of control (non-peptide-pulsed) cells kept at 26°C, multiplied by 100 to express the values for peptide-pulsed cells as a percentage of that for the control cells at 26°C.

For AFHHVAREL [Nef AL9], the “Responder (number), 1402+” value ([1]; 1 μM peptide) was 2, the “Responder (number), 1403+” value ([1]; 1 μM peptide) was 1 and the “frequency of individuals showing responses of >100 spot-forming cells/10^6 PBMCs” value (shortened to “frequency”) ([1]; 1 μM peptide) was 5%. The “relative affinity in hierarchy of peptide-HLA-C*14 binding (HLA-C*14:02)” value (HLA-C*14:02) was “lowest”.
AFSPEVIPM [Gag AM9] was tested, and the “Responder (number), 1402+” value ([1]; 1 μM peptide) was 16, the “Responder (number), 1403+” value ([1]; 1 μM peptide) was 18 and the “frequency” value ([1]; 1 μM peptide) was 56%. For the same sequence, the “relative affinity in hierarchy of peptide-HLA-C*14 binding (HLA-C*14:02)” value (HLA-C*14:02) was “highest”.
“ASGYIEAEV [Pol AV9, HIV-1 NL4-3 Pol 795–803 peptide …]” was tested, and the “binding to HLA-C*14:02 (stabilization of surface HLA expression)” value (HLA-C*14:02) was “did not exhibit detectable binding”.
“FFREDLAF [Pol FF8, HIV-1 NL4-3 Pol 1–8 peptide FFREDLAF]” was tested, and the “binding to HLA-C*14:02 (stabilization of surface HLA expression)” value (HLA-C*14:02) was “low”.
For “FLGAAGSTM [Env FM9, HIV-1 NL4-3 Env 522–530 peptide …]”, the “binding to HLA-C*14:02 (stabilization of surface HLA expression)” value (HLA-C*14:02) was “did not exhibit detectable binding”.
In the case of “FMTKALGI [Tat FI8, HIV-1 NL4-3 Tat 38–45 peptide FMTKALGI]”, the “binding to HLA-C*14:02 (stabilization of surface HLA expression)” value (HLA-C*14:02) is reported as “did not exhibit detectable binding”.
In the case of IYHTQGYF [Nef IF8], the “Responder (number), 1402+” value ([1]; 1 μM peptide) is reported as 6, the “Responder (number), 1403+” value ([1]; 1 μM peptide) is reported as 6 and the “frequency” value ([1]; 1 μM peptide) is reported as 20%.
KYHSNWRAM [Pol KM9] was tested, and the “Responder (number), 1402+” value ([1]; 1 μM peptide) was 4, the “Responder (number), 1403+” value ([1]; 1 μM peptide) was 0 and the “frequency” value ([1]; 1 μM peptide) was 6.6%. For the same sequence, the “magnitude of T cell responses, compared between groups” value ([1]; 60 individuals, HLA-C*14:02+ versus HLA-C*14:03+ (or Gag versus Pol/Nef epitopes), Mann-Whitney test) was “significantly higher”.
In the case of LYNTIAVLY [Gag LY9], the “number of individuals with response, of 60 HLA-C*14+ Japanese individuals” value ([1]; 1 μM peptide, relatively strong responses) is reported as 11, the “Responder (number), 1402+” value ([1]; 1 μM peptide) is reported as 6 and the “Responder (number), 1403+” value ([1]; 1 μM peptide) is reported as 5. For the same sequence, the “frequency” value ([1]; 1 μM peptide) was 18%.
With “RFDSRLAF [Nef RF8, HIV-1 NL4-3 Nef 184–191 peptide RFDSRLAF]” the “binding to HLA-C*14:02 (stabilization of surface HLA expression)” value (HLA-C*14:02) was “did not exhibit detectable binding”.
“VYYDPSKDL [Pol VYL9, HIV-1 NL4-3 Pol 472–480 peptide …]” was tested, and the “binding to HLA-C*14:02 (stabilization of surface HLA expression)” value (HLA-C*14:02) was “low”.
For YFPDWQNYT [Nef YT9], the “Responder (number), 1402+” value ([1]; 1 μM peptide) was 12, the “Responder (number), 1403+” value ([1]; 1 μM peptide) was 7 and the “frequency” value ([1]; 1 μM peptide) was 31%.
